Laboratory results: PMC7342775 (European journal of medicinal chemistry, 2020)

What was measured:
α1β3γ2L GABAARs [1] = target: T1, α1β3γ2L GABAARs (Homo sapiens, UniProt P14867+P18507+P28472); assay: Modulation of [3H]muscimol binding, native HEK cell membranes
α1β3γ2L GABAARs [2] = target: T1, α1β3γ2L GABAARs; assay: Inhibition of [3H]azietomidate photolabeling; format: binding; conditions: in the presence of 300 μM etomidate
α1β3γ2L GABAARs [3] = target: T1, α1β3γ2L GABAARs; assay: [3H]pTFD-di-iPr-BnOH photolabeling and its inhibition; format: binding; conditions: with GABA; for inhibition of [3H]pTFD-di-iPr-BnOH photoincorporation into the β subunit: 300 μM etomidate, 30 μM allopregnanolone, fluorography
α1(S270I)β3γ2L receptors = α1(S270I)β3γ2L receptors (Homo sapiens, UniProt P14867+P18507+P28472, S297I); assay: Oocyte electrophysiology, enhancement of low-GABA currents, α1 S270I mutant; format: cell-based; conditions: for enhancement of GABA currents compared to wild type: 5 μM etomidate, 8 μM R-mTFD-MPAB
α1β3γ2 GABAAR [4] = conditions: cited from earlier work; for selectivity favoring the R-mTFD-MPAB sites / selectivity favoring the etomidate site: 4-substituted propofols
Xenopus laevis tadpoles = assay: Loss of righting reflexes; format: in vivo
α1β3γ2L GABAARs [5] = target: T1, α1β3γ2L GABAARs; assay: Inhibition of [3H]R-mTFD-MPAB photolabeling; format: binding
α1β3 GABAARs = target: T2, α1β3 GABAARs (Homo sapiens, UniProt P14867+P28472); assay: Modulation of [3H]muscimol binding, α1β3 receptors
T2 sequence (P14867 28-456): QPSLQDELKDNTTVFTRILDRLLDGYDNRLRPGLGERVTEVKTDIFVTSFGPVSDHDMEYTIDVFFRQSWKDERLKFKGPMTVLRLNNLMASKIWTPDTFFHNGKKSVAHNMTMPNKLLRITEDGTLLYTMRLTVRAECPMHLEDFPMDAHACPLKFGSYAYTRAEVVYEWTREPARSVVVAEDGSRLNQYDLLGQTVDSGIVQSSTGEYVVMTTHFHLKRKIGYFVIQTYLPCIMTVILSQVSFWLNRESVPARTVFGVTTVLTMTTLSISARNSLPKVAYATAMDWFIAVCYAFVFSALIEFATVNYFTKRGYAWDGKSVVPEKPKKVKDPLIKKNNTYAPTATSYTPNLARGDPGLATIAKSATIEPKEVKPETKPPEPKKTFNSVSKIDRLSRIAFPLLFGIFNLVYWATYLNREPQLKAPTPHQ
T2 sequence (P28472 26-473): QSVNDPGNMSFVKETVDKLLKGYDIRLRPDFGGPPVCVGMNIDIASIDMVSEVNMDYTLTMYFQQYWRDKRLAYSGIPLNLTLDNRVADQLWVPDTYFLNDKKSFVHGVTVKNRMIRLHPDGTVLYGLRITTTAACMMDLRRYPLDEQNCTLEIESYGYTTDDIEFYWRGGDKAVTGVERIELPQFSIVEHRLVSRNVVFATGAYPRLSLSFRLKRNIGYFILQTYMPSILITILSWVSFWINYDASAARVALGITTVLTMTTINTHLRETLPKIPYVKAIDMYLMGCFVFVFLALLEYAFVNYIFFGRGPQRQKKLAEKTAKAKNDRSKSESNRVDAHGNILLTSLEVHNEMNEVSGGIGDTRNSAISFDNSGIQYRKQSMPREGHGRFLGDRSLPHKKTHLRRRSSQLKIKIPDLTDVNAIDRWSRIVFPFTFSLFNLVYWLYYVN

α1β3γ2 GABAAR [6] = assay: Selectivity between etomidate and R-mTFD-MPAB sites; format: binding, human
α1β3γ2L GABAARs [7] = target: T1, α1β3γ2L GABAARs; assay: Two-microelectrode voltage-clamp electrophysiology in Xenopus oocytes, wild type

T1 sequence (P18507 40-475, one chain of several): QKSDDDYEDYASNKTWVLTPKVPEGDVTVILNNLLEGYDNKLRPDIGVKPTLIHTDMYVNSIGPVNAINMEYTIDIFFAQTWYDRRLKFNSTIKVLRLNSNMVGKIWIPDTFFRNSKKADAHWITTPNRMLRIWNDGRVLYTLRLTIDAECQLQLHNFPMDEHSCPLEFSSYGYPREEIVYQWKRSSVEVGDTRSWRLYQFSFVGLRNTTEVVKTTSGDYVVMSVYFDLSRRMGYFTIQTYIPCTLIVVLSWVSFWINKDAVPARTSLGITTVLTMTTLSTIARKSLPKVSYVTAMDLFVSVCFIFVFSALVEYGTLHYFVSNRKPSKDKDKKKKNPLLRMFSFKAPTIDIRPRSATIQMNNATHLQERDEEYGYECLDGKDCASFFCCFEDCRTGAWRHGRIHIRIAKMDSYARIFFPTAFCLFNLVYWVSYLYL
Chain of α1(S270I)β3γ2L receptors (P14867 28-456 S297I, one chain of several): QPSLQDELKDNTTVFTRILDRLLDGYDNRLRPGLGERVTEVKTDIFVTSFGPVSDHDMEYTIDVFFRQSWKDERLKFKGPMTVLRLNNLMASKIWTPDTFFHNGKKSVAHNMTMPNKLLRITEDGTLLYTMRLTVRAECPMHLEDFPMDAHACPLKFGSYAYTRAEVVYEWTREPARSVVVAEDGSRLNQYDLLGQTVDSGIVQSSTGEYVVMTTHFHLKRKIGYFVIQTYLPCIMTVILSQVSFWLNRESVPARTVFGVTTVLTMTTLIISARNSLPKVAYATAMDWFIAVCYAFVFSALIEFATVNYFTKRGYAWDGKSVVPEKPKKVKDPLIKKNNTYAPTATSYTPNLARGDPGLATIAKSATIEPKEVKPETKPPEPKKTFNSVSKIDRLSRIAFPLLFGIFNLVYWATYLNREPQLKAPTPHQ
Chain of α1(S270I)β3γ2L receptors (P18507 40-475, one chain of several): as the sequence (P18507 40-475, one chain of several) above

SMILES: OCc1ccccc1 [BnOH, benzyl alcohol]
- LoRR at lower concentrations than modulation of [3H]muscimol binding (α1β3γ2L GABAARs [1]; tadpole LoRR vs HEK cell membranes): ~20 times
- modulation of [3H]muscimol binding (α1β3γ2L GABAARs [1]; up to 50 mM): no modulation

SMILES: CCOC(=O)c1cncn1[C@H](C)c1ccccc1 [etomidate]
- non-specific [3H]azietomidate photolabeling (Bns) (α1β3γ2L GABAARs [2]): 13 ± 3%
- inhibition of [3H]pTFD-di-iPr-BnOH photoincorporation into the β subunit (α1β3γ2L GABAARs [3]): little inhibition of photolabeling
- enhancement of GABA currents compared to wild type (α1(S270I)β3γ2L receptors): comparable to that in wild-type

SMILES: CC(=O)[C@H]1CC[C@H]2[C@@H]3CC[C@H]4C[C@H](O)CC[C@]4(C)[C@H]3CC[C@]12C [allopregnanolone]
- inhibition of [3H]pTFD-di-iPr-BnOH photoincorporation into the β subunit (α1β3γ2L GABAARs [3]): little inhibition of photolabeling

SMILES: CC(C)c1cc(C(O)c2ccccc2)cc(C(C)C)c1O (centres unmarked) [Ph–C(OH)–]
- selectivity favoring the R-mTFD-MPAB sites (α1β3γ2 GABAAR [4]): 5.3 fold

SMILES: CC(C)c1cc(C2(C(F)(F)F)N=N2)cc(C(C)C)c1CO [pTFD-di-iPr-BnOH, (2,6-diisopropyl-4-(3-(trifluoromethyl)-3H-diazirin-3-yl)phenyl)methanol]
- fraction of tadpoles that did not recover from anesthesia (Xenopus laevis tadpoles; at 2 μM): 4/7
- fraction of tadpoles that did not recover from anesthesia (Xenopus laevis tadpoles; at 3 μM): 6/9
- fraction of tadpoles that did not recover from anesthesia (Xenopus laevis tadpoles; at 10 μM): 7/10
- increase in LoRR potency (Xenopus laevis tadpoles; relative to Di-iPr-BnOH): 6 fold
- reduction of enhancement compared to wild type (α1(S270I)β3γ2L receptors; 10 μM pTFD-di-iPr-BnOH): more than 50%
- IC50 (α1β3γ2L GABAARs [5]): 73 ± 10 µM

SMILES: C=CCC1(c2cccc(C3(C(F)(F)F)N=N3)c2)C(=O)NC(=O)N(C)C1=O (centres unmarked) [R–mTFD-MPAB, (5-allyl-1-methyl-5-(3-(3-(trifluoromethyl)-3H-diazirin-3-yl)phenyl)pyrimidine-2,4,6(1H,3H,5H)-trione)]
- enhancement of GABA currents compared to wild type (α1(S270I)β3γ2L receptors): significantly reduced
- non-specific [3H]R-mTFD-MPAB photolabeling (Bns) (α1β3γ2L GABAARs [5]; in the presence of 60 μM R-mTFD-MPAB): 13 ± 4%

SMILES: CC(C)c1cccc(C(C)C)c1O [Propofol]
- extent of inhibition of [3H]pTFD-di-iPr-BnOH photolabeling (α1β3γ2L GABAARs [3]; 300 μM, β subunit): to the same extent as the background labeling
- EC50 (α1β3 GABAARs): 7 ± 1.7 µM
- selectivity favoring the etomidate site (α1β3γ2 GABAAR [4]): 5.5 fold

SMILES: CC(C)c1cc(C(=O)c2ccccc2)cc(C(C)C)c1O [4-benzoylpropofol]
- high affinity R-mTFD-MPAB site favored over the etomidate site (α1β3γ2 GABAAR [4]): 200 fold
- low affinity R-mTFD-MPAB site favored over the etomidate sites (α1β3γ2 GABAAR [4]): 3 fold

SMILES: CC(C)c1cccc(C(C)C)c1CO [Di-iPr-BnOH, (2,6-diisopropylphenyl)methanol]
- selectivity favoring the etomidate site over R-mTFD-MPAB site (α1β3γ2 GABAAR [6]): 2–3 fold

SMILES: CC(=O)c1cc(C(C)C)c(O)c(C(C)C)c1 [Me–CO–]
- selectivity favoring the R-mTFD-MPAB sites (α1β3γ2 GABAAR [4]): 1.5 fold

SMILES: CC(C)c1cc(Cl)cc(C(C)C)c1O [4-Cl-propofol]
- selectivity favoring the etomidate site (α1β3γ2 GABAAR [4]): 4 fold

SMILES: CC(C)c1cc(C(C)(C)C)cc(C(C)C)c1O [t-Bu–]
- selectivity favoring the R-mTFD-MPAB sites (α1β3γ2 GABAAR [4]): 8 fold

SMILES: NCCCC(=O)O [GABA, γ-aminobutyric acid]
- elicited currents (α1β3γ2L GABAARs [7]; 1 mM GABA): 3.2 ± 1.5 μA
- Hill coefficient nH of GABA concentration-response curve (α1β3γ2L GABAARs [7]; GABA alone): 1.0 ± 0.1
